In brackets after ≈: the same amount, converted by molar mass. Values belong to the compound of their own block, whether it stands above or below them.
Assays:
A2780 cells = assay: Survival of ovarian carcinoma-bearing mice; type: in vivo; settings: DOX 3 mg/kg intraperitoneally in PLURONIC P-105 micelles, sonication one hour after injection
Procedure: A2780 cells (1×10^6) were inoculated intraperitoneally. DOX in PBS or PLURONIC P-105 micelles was injected intraperitoneally the next day after cell inoculation. Sonication of the abdominal region was performed one hour after DOX injection.

HL-60 cells [1] = assay: Intracellular drug uptake by HL-60 cells (lysate fluorescence); type: cell-based
Procedure: Intracellular uptake of doxorubicin and ruboxyl was measured using a fluorescence technique wherein compounds were excited at 488 nm and technical emission spectra were recorded at 510-700 nm. Two sets of samples were studied, incubated, and sonicated. Ultrasound was generated by a Sonicor SC100 sonication bath operating at 70 kHz and 37° C. Power density was controlled by adjusting the input voltage and was measured with a hydrophone.
For the first set of samples, the cells were incubated at 37° C. with doxorubicin or ruboxyl, which were either dissolved in the RPMI medium or PBS, or the drugs were solubilized in PLURONIC P-105 solutions of various concentrations. For the second set of samples, the cells were sonicated by 70 kHz ultrasound at 37° C. to assess the effect of ultrasound on the drug uptake from molecular and micellar solutions. After being incubated/sonicated with and without the drug, the cells were centrifuged, washed twice with cold PBS, resuspended in PBS, and the fluorescence spectra of cell suspensions were recorded. The fluorescence intensity of the untreated cells was subtracted from that of the drug-treated cells. Because drug fluorescence within the cells was substantially quenched, drug uptake was quantified by lysing the cells by incubating them with 1 wt % SDS solution for 1-2 hours at 37° C. This process transferred the drug from cellular components to SDS micelles. […] Upon the completion of cell lysis, fluorescence spectra of the lysates were recorded. To quantify the concentration of lysed cells, cell lysates were filtered through 0.2 μm filters, and their optical densities were measured by protein absorbance at 280 nm (OD 280 nm). […] The fluorescence intensity of lysates ws normalized by OD 280 nm.

A2780 tumor = assay: In vivo DOX uptake by sonicated A2780 tumor
[2] = tested on: drug-sensitive ovarian carcinoma A2780 cells; assay: Growth inhibition of drug-sensitive ovarian carcinoma cells (IC75); type: cell-based
Procedure: (§1) It should be noted that because of the cytostatic action of micelles, the inhibitory concentration IC50 values for drugs become meaningless; for example, upon 3-hour incubation with a drug-free 10% P-105 micelles followed by three days culturing in a PLURONIC-free RPMI 1640 medium, the growth inhibition of both sensitive and resistant cells exceeded 50%. […] For cases like this it would be more informative to compare, e.g., IC75 values.

[3] = Ultrasound-triggered drug release from PLURONIC P-105 micelles; type: physicochemical
Excerpt: The measurements of the degree of drug release are based on the decrease of DOX fluorescence intensity when DOX is transferred from the hydrophobic environment of micelle cores to the aqueous environment. An argon-ion laser beam of 488 nm was directed to a drug-containing cuvette to excite fluorescence. The emissions were collected using a fiber optic collector and filtered to remove the excitation wavelength. The emissions were quantified using a photodetector, digitized with a 12-bit A/D converter, and stored in a Macintosh computer for further analysis.
Digitized fluorescence intensity data were analyzed to calculate the percent of the drug release from micelles. A fluorescence intensity of a 10 μg/ml DOX solution in PBS (IPBS) was measured first; the PBS solution was then carefully sucked out of the cuvette and replaced with a 10 μg/ml DOX solution in 10% PLURONIC P-105 micelles. Fluorescence of this solution (Imic) was measured, and a difference Imic−IPBS was assumed to correspond to a […] drug release from micelles. Then, ultrasound was switched on, and DOX fluorescence under sonication (Ius) was recorded; if sonication induced partial drug release from micelles into the aqueous environment, Ius was lower than Imic; the “ultrasound on”-“ultrasound off” cycles were repeated several times to check reproducibility. The length of each ultrasound exposure cycle was 1 to 2 minutes. […] The degree of drug release (DDR) was calculated as follows: DDR={[Imic−Ius]/[Imic−IPBS]}×100

[4] = tested on: MDR ovarian carcinoma A2780/ADR cells; assay: Growth inhibition / cell kill of MDR ovarian carcinoma cells with Pluronic and ultrasound; type: cell-based; settings: for IC75: A2780/ADR
Procedure: as §1
As an example, when the MDR cell were incubated with drug-free 10% PLURONIC micelles for three hours, upon which they were sonicated for 10 minutes by 69-kHz ultrasound at 3.2 W/cm^2 and cultured for 72 hours, the growth of the MDR cell dropped to forty percent of the unsonicated non-incubated control.
For the MDR cells, PLURONIC and ultrasound effects are especially important. At the absence of micelles, only about forty percent of the MDR cells are killed at DOX or Rb concentrations as high as 100 μg/ml. However, when the MDR cells were incubated with 5 μg/ml DOX for three hours in the presence of a unimeric Pluronic solution followed by a 10-minute sonication by 69-kHz ultrasound at 3.2 W/cm^2, sixty six percent of the cells died upon subsequent cell culturing vs. fifty three percent without ultrasound; only fifteen percent of the MDR cells die upon incubation with 5 μg/ml DOX without Pluronic and ultrasound treatment.
Ultrasound-induced increased intracellular uptake was accompanied by a dramatic sensitization of the MDR cells to the action of DOX (FIG. 10). […] Even without ultrasound, IC50 of DOX in the MDR ovarian carcinoma cells dropped 50-fold in the presence of PLURONIC unimers and micelles.

[5] = tested on: ovarian carcinoma drug-sensitive A2780 cells; assay: Intracellular DOX uptake by A2780 cells under 1 MHz ultrasound (flow cytometry); type: cell-based
Procedure: Fluorescence histograms of the A2780 cells incubated or sonicated in the presence of DOX are shown. The initial concentration of cells ranged from 3×10^6 to 5×10^6 cells/ml as determined using a hemacytometer. After exposure to DOX (10 μg/ml to 50 μg/ml in various experiments) and ultrasound (15 to 30 s), cells were counted again to measure the degree of sonolysis, upon which they were centrifuged, washed with PBS, fixed with a 3% formalin or 2.5% glutaraldehide, and analyzed by flow cytometry. Fluorescence histograms were recorded with a FACScan flow cytometer (Beckton Dickinson) and analyzed using CellQuest software supplied by the manufacturer. A minimum of 10,000 events was analyzed to generate each histogram.
The experiments on the effect of ultrasound on the intracellular DOX uptake with and without micelles were always conducted in parallel, at the same day and using the same batch of the cells.

HL-60 cells [6] = settings: combination of micellar delivery and ultrasonication; cited from earlier work
DNA = assay: Drug intercalation into DNA (fluorescence drop); type: binding; settings: drug introduced from micellar solution
Excerpt: Ruboxyl and doxorubicin encapsulation in PLURONIC micelles restricted not only drug interaction with the cells, but also drug interaction with cell components, e.g. DNA.

[7] = tested on: MDR ovarian carcinoma A2780/ADR cells; assay: Growth inhibition / cell kill of MDR ovarian carcinoma cells with Pluronic and ultrasound; type: cell-based; settings: 10-min sonication by 67-kHz ultrasound
[8] = Effects of PLURONIC micelles and ultrasound on drug uptake and cytotoxicity, other drugs; type: cell-based
Excerpt: It is important to note that the effects of PLURONIC micelles and ultrasound on drug uptake and cytotoxicity described above for DOX were also observed for another anthracycline drug, Ruboxyl. […] This implies that the new modality of drug delivery described here will have general applicability to a wide variety of drugs and drug delivery systems.

[9] = tested on: breast and colon carcinomas and bone sarcoma; settings: cited from earlier work
[10] = Drug partitioning between PLURONIC micelles and polystyrene latex particles; type: physicochemical
Procedure: To study solute release from PLURONIC micelles, the partitioning of the solute between the micelles and the surface of polystyrene latex particles was investigated. A spin probe, DSTA, or the drug, ruboxyl, was solubilized in PLURONIC P-105 solutions of various concentrations. A suspension of polystyrene latex particles (average diameter 0.9 μm, 50 μl/ml) was incubated with 1 ml of DSTA or ruboxyl solution in PLURONIC P-105, and depletion of the probe in the supernatant was measured by the EPR (for DSTA) or fluorescence (for ruboxyl) technique upon polystyrene particle separation.
An important question pertinent to this research was how tightly the solubilized drug was associated with PLURONIC micelles. To investigate this problem, ruboxyl adsorption on polystyrene latex particles was measured from molecular solutions of ruboxyl in PBS and from micellar PLURONIC solutions. Ruboxyl readily adsorbs onto polystyrene surfaces. About 90% of the drug is transferred onto polystyrene surface from ruboxyl solutions in PBS. PLURONIC micelles, however, compete for ruboxyl with polystyrene surfaces; only about 40% of ruboxyl solubilized in PLURONIC micelles (20 wt % solutions of PLURONIC P-105) is transferred onto the polystyrene surface, the remainder being retained within the PLURONIC micelles.

[11] = tested on: leukosis, La, P-388, and L-1210; solid tumors; settings: P-388, L-1210 in mice, solid tumors in rats; cited from earlier work
[12] = PLURONIC concentration 0.1%, below CMC
[13] = drug sequestered in dense PLURONIC P-105 micelles vs free drug
[14] = absence of micelles, drug concentration 100 μg/ml

DOX uptake by other organs under ultrasound (A2780 tumor; 3-MHz ultrasound): not affected | power density required for 10% DOX release ([3]; 1.0-MHz ultrasound): 7.2 W/cm^2 | power density required for 10% DOX release ([3]; 20-kHz ultrasound): 0.058 W/cm^2 | power density required for 10% DOX release ([3]; 67-kHz ultrasound): 2.8 W/cm^2
SMILES: COc1cccc2c1C(=O)c1c(O)c3c(c(O)c1C2=O)C[C@@](O)(C(=O)CO)C[C@@H]3O[C@H]1C[C@H](N)[C@H](O)[C@H](C)O1 [DOX, Doxorubicin]
life span vs conventional drug introduction (A2780 cells): much longer | drug uptake by HL-60 cells (HL-60 cells [1]; [12]): somewhat enhanced | drug uptake by HL-60 cells (HL-60 cells [1]; [13]): substantial decrease | DOX uptake by cells of the sonicated tumor (A2780 tumor; DOX 6 mg/kg intravenously, 1 MHz or 3 MHz ultrasound 1.7 W/cm2): dramatically enhanced | IC75 ([2]; A2780, P-105 0.1% (unimers)): 1.3 µg/mL (≈ 2.39 µM) | IC75 ([2]; A2780, P-105 10% (micelles)): 1.3 µg/mL (≈ 2.39 µM) | IC75 ([2]; A2780, RPMI (no Pluronic)): 1.3 µg/mL (≈ 2.39 µM) | MDR cells died ([4]; 5 μg/ml DOX three hours in unimeric Pluronic solution, 10-minute sonication 69-kHz 3.2 W/cm^2): sixty six | MDR cells died ([4]; 5 μg/ml DOX three hours in unimeric Pluronic solution, without ultrasound): fifty three | MDR cells died ([4]; 5 μg/ml DOX without Pluronic and ultrasound treatment): fifteen | IC75 ([4]; P-105 0.1% (unimers)): 12 ± 2 µg/mL (≈ 22.1 µM) | IC75 ([4]; P-105 10% (micelles)): 16 ± 2 µg/mL (≈ 29.4 µM) | IC75 ([4]; RPMI (no Pluronic)): >100 µg/mL | MDR cells killed ([4]; PLURONIC micelle and ultrasound, DOX concentration 0.78 μg/ml): 100% | MDR cells killed [4, 14]: about forty | fraction of MDR cells highly resistant to DOX ([4]; conventional medium, DOX 50 μg/ml): about 55% | fraction of MDR cells highly resistant to DOX ([4]; in the presence of PLURONIC micelles): completely eliminated | drop of IC50 of DOX ([4]; presence of PLURONIC unimers and micelles, without ultrasound): 50 fold | DOX uptake, sonicated vs unsonicated cells ([5]; sonicated 15 s vs unsonicated incubated 30 min, same DOX concentration): significantly higher | intracellular uptake of DOX ([5]; sonication at 1 MHz, from PBS or RPMI 1640): substantially increased | effective drug dose (HL-60 cells [6]): substantial decrease | drug-DNA interaction (DNA): lower drug-DNA interaction | fraction of MDR cells highly resistant to DOX [7]: about 30%

drug transferred onto polystyrene surface ([10]; from ruboxyl solutions in PBS): About 90% | drug transferred onto polystyrene surface ([10]; solubilized in PLURONIC micelles (20 wt % PLURONIC P-105)): about 40%
SMILES: COc1cccc2c1C(=O)c1c(O)c3c(c(O)c1C2=O)C[C@@](O)(/C(C)=N/N=C1CC(C)(C)N(O)C(C)(C)C1)C[C@@H]3O[C@H]1C[C@H](N)[C@H](O)[C@H](C)O1.Cl [Rb, ruboxyl]
effects of PLURONIC micelles and ultrasound on drug uptake and cytotoxicity [8]: also observed | drug uptake by HL-60 cells (HL-60 cells [1]; [12]): somewhat enhanced | drug uptake by HL-60 cells (HL-60 cells [1]; [13]): substantial decrease | IC75 ([2]; A2780, P-105 10% (micelles)): 0.9 µg/mL | IC75 ([2]; A2780, RPMI (no Pluronic)): 1.5 µg/mL | clinical efficacy ([9]; breast and colon carcinomas and bone sarcoma): effective | cardiotoxicity ([9]; clinical trials): reduced | IC75 ([4]; P-105 10% (micelles)): 17 ± 3 µg/mL | IC75 ([4]; RPMI (no Pluronic)): >100 µg/mL | MDR cells killed [4, 14]: about forty | anti-tumor activity [11]: high | drug-DNA interaction (DNA): lower drug-DNA interaction

SMILES: CC(=O)O[C@H]1C(=O)[C@@]2(C)[C@H]([C@H](OC(=O)c3ccccc3)[C@]3(O)C[C@H](OC(=O)[C@H](O)[C@@H](NC(=O)c4ccccc4)c4ccccc4)C(C)=C1C3(C)C)[C@]1(OC(C)=O)CO[C@@H]1C[C@@H]2O [taxol]
effects of PLURONIC micelles and ultrasound on drug uptake and cytotoxicity [8]: promising results

From patent US20050003008A1, “Method of in vivo drug targeting to solid tumors via acoustically triggered drug delivery in polymeric micelles” (priority 1997, published 2005)
